Consider 24 compounds from patent US9914730B2, “Azaquinazoline inhibitors of Atypical protein Kinase C” (Ignyta, Inc., priority 2012, dated 2018).

The experiment deals with T1, full-length human PKCι (Homo sapiens, UniProt P41743).
T1 construct: Recombinant, full-length human PKCι expressed in Sf21 insect cells is also commercially available; purchased; host or cells: Sf21 insect cells
T1 sequence (P41743 1-596): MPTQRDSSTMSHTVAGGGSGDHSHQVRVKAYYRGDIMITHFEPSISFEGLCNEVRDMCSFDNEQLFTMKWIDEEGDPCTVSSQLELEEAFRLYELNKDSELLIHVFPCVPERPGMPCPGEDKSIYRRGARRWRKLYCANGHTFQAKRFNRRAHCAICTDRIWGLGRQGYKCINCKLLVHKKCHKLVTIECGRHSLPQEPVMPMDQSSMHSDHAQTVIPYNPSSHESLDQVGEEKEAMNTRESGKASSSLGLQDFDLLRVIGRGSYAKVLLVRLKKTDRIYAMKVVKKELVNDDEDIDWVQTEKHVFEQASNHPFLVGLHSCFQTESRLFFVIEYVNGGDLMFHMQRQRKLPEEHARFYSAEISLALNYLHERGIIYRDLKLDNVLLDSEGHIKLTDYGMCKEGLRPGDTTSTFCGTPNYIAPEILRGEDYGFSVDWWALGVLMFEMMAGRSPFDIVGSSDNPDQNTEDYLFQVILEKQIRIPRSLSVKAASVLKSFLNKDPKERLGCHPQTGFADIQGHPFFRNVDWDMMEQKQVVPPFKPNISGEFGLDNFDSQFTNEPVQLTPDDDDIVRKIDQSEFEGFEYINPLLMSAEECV
Put plainly: PKCι IC50 IMAP assay, full-length PKCι at 150 μM ATP. The class given is biochemical. The note with it: read-out: IC50 in IMAP assay against full length PKCi at 150 μM ATP. In short, it runs like this: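 IC50 from IMAP FP (ex 485/em 530 nm) after 60 min room-temperature reaction in pH 7.5 tris buffer with 9 mM MgCl2 and 0.9 mM DTT. Enzyme: full-length Sf21-expressed PKCι (~15 pM); ATP 150 μM, five times KM^APP; FAM-labelled peptide 100 nM; DMSO 4%.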

One may read the IC50 as the midpoint of a concentration-inhibition curve. Take `CC(C)(Nc1cc(-c2nc(N3CCNCC3)c3c(C4CC4)cncc3n2)ccn1)C(F)(F)F` [Example 598, [4-(5-Cyclopropyl-4-piperazin-1-yl-pyrido[3,4-d]pyrimidin-2-yl)-pyridin-2-yl]-(2,2,2-trifluoro-1,1-dimethyl-ethyl)-amine]: the IC50 is less than 100 nM.

In the case of `NC(=O)CN[C@H](CNc1nc(-c2ccncc2)nc2cnccc12)Cc1ccccc1` [Example 82, 2-{[(2S)-1-phenyl-3-{[2-(pyridin-4-yl)pyrido[3,4-d]pyrimidin-4-yl]amino}propan-2-yl]amino}acetamide], the IC50 fell in the range of 1000 to 10000 nM.

Turning to `COc1cncc2nc(-c3ccncc3)nc(N3CCN[C@H](C)C3)c12` [Example 52, (3R)-1-[5-methoxy-2-(pyridin-4-yl)-pyrido[3,4-d]-pyrimidin-4-yl]-3-methylpiperazine], the concentration for half-maximal inhibition (IC50) is 1000 to 10000 nM.

Turning to `COc1cncc2nc(-c3ccnc(Nc4ccccc4)c3)nc(N3CCN[C@H](CF)C3)c12` [Example 235, {4-[4-((S)-3-Fluoro-methyl-piperazin-1-yl)-5-methoxy-pyrido[3,4-d]pyrimidin-2-yl]-pyridin-2-yl}-phenyl-amine], the half-maximal inhibitory concentration (IC50) was in the range of 100 to 1000 nM.

For `CC(C)c1ccc(F)c(Nc2cc(-c3nc(N4CCNCC4)c4c(C5CC5)cncc4n3)ccn2)c1` [Example 716, [4-(5-Cyclopropyl-4-piperazin-1-yl-pyrido[3,4-d]pyrimidin-2-yl)-pyridin-2-yl]-(2-fluoro-5-isopropyl-phenyl)-amine], the half-maximal inhibitory concentration (IC50) is less than 100 nM.

As for `c1ccc(C2(c3cc4c(-c5nc(N6CCNCC6)c6c(C7CCC7)cncc6n5)ccnc4[nH]3)CCC2)cc1` [Example 2181, 5-Cyclobutyl-2-[2-(1-phenyl-cyclobutyl)-1H-pyrrolo[2,3-b]pyridin-4-yl]-4-piperazin-1-yl-pyrido[3,4-d]pyrimidine], the half-maximal inhibitory concentration (IC50) is less than 100 nM.

On to `c1cc(-c2nc(N3CCNCC3)c3c(C4CC4)cncc3n2)cc(Nc2cnn(C3CCCC3)c2)n1` [Example 796, (1-Cyclopentyl-1H-pyrazol-4-yl)-[4-(5-cyclopropyl-4-piperazin-1-yl-pyrido[3,4-d]pyrimidin-2-yl)-pyridin-2-yl]-amine], for which the IC50 was less than 100 nM.

Regarding `COc1cncc2nc(-c3ccnc(Nc4ccc(N5CCOCC5)nc4)c3)nc(N[C@@H]3CCNC3)c12` [Example 330, {5-Methoxy-2-[2-(6-morpholin-4-yl-pyridin-3-ylamino)-pyridin-4-yl]-pyrido[3,4-d]pyrimidin-4-yl}-(R)-pyrrolidin-3-yl-amine], the IC50 was less than 100 nM.

In the case of `COc1cncc2nc(-c3ccnc(Nc4ccc(-c5ccccc5)nc4)c3)nc(N3CCNCC3)c12` [Example 392, [4-(5-Methoxy-4-piperazin-1-yl-pyrido[3,4-d]pyrimidin-2-yl)-pyridin-2-yl]-(6-phenyl-pyridin-3-yl)-amine], the IC50 was less than 100 nM.

For the compound `O=C(Nc1cc(-c2nc(N3CCNCC3)c3c(C4CC4)cncc3n2)ccn1)C(F)(F)c1ccccc1` [Example 2126, N-[4-(5-Cyclopropyl-4-piperazin-1-yl-pyrido[3,4-d]pyrimidin-2-yl)-pyridin-2-yl]-2,2-difluoro-2-phenyl-acetamide], the 50% inhibitory concentration (IC50) is less than 100 nM.

As to `Fc1cccc(F)c1Nc1cc(-c2nc(N3CCNC4(CC4)C3)c3c(C4CC4)cncc3n2)ccn1` [Example 829, {4-[5-Cyclopropyl-4-(4,7-diaza-spiro[2.5]oct-7-yl)-pyrido[3,4-d]pyrimidin-2-yl]-pyridin-2-yl}-(2,6-difluoro-phenyl)-amine], the IC50 is less than 100 nM.

Take `CC1CN(c2nc(-c3ccnc(Nc4nc(F)ccc4F)c3)nc3cncc(C4CC4)c23)CC(C)N1` (stereo not drawn) [Example 763, {4-[5-Cyclopropyl-4-(3,5-dimethyl-piperazin-1-yl)-pyrido[3,4-d]pyrimidin-2-yl]-pyridin-2-yl}-(3,6-difluoro-pyridin-2-yl)-amine]: the half-maximal inhibitory concentration (IC50) was less than 100 nM.

Regarding `COc1cncc2nc(-c3ccnc(Nc4nccs4)c3)nc(N3CCNCC3)c12` [Example 219, [4-(5-Methoxy-4-piperazin-1-yl-pyrido[3,4-d]pyrimidin-2-yl)-pyridin-2-yl]-thiazol-2-yl-amine], the IC50 was in the range of 100 to 1000 nM.

`COc1cncc2nc(-c3ccnc(Nc4ccccc4)c3)nc(N3CCN[C@@H](CC#N)C3)c12` [Example 232, {(S)-4-[5-Methoxy-2-(2-phenylamino-pyridin-4-yl)-pyrido[3,4-d]pyrimidin-4-yl]-piperazin-2-yl}-acetonitrile]: the IC50 lay within 100 to 1000 nM.

With `CC(C)(C)OC(=O)N1CCN(c2nc(-c3ccncc3)nc3cnccc23)CC1` [Example 22, tert-butyl 4-[2-(pyridin-4-yl)-pyrido[3,4-d]-pyrimidin-4-yl]-piperazine-1-carboxylate], the IC50 lay within 10000 to 40000 nM.

Regarding `COc1cncc2nc(-c3ccncc3)nc(N3CCNCC3)c12` [Example 31, 1-[5-methoxy-2-(pyridin-4-yl)-pyrido[3,4-d]-pyrimidin-4-yl]-piperazine], the IC50 fell in the range of 100 to 1000 nM.

Regarding `COc1cncc2nc(-c3ccnc(NC(=O)Cc4cccc(Cl)c4)c3)nc(N3CCNCC3)c12` [Example 370, 2-(3-Chloro-phenyl)-N-[4-(5-methoxy-4-piperazin-1-yl-pyrido[3,4-d]pyrimidin-2-yl)-pyridin-2-yl]-acetamide], the half-maximal inhibitory concentration (IC50) is less than 100 nM.

With `c1cnnc(Nc2cc(-c3nc(N4CCNCC4)c4c(C5CC5)cncc4n3)ccn2)c1` [Example 545, [4-(5-Cyclopropyl-4-piperazin-1-yl-pyrido[3,4-d]pyrimidin-2-yl)-pyridin-2-yl]-pyridazin-3-yl-amine], the IC50 is less than 100 nM.

Regarding `N[C@H](CNc1nc(-c2ccncc2)nc2cnccc12)Cc1ccccc1` [Example 6, N-[(2S)-2-amino-3-phenylpropyl]-2-(pyridin-4-yl)pyrido[3,4-d]-pyrimidin-4-amine], the 50% inhibitory concentration (IC50) was less than 100 nM.

`N[C@H](CNc1nc(-c2ccncc2)nc2c(-c3ccsc3)nccc12)Cc1ccccc1` [Example 114, N-[(2S)-2-amino-3-phenylpropyl]-2-(pyridin-4-yl)-8-(thiophen-3-yl)pyrido[3,4-d]pyrimidin-4-amine]: the half-maximal inhibitory concentration (IC50) is 100 to 1000 nM.

With `COc1cncc2nc(-c3ccnc(Nc4ncccc4C)c3)nc(N3CCNCC3)c12` [Example 410, [4-(5-Methoxy-4-piperazin-1-yl-pyrido[3,4-d]pyrimidin-2-yl)-pyridin-2-yl]-(3-methyl-pyridin-2-yl)-amine], the half-maximal inhibitory concentration (IC50) was in the range of 100 to 1000 nM.

For `COc1cncc2nc(-c3ccnc(Nc4cccc(N5CCNCC5)c4)c3)ncc12` [Example 503, [4-(5-Methoxy-pyrido[3,4-d]pyrimidin-2-yl)-pyridin-2-yl]-(3-piperazin-1-yl-phenyl)-amine], the IC50 lay in the range of 1000 to 10000 nM.

As for `COc1cc(F)c(Nc2cc(-c3nc(N4CCNCC4)c4c(C5CC5)cncc4n3)ccn2)c(F)c1` [Example 590, [4-(5-Cyclopropyl-4-piperazin-1-yl-pyrido[3,4-d]pyrimidin-2-yl)-pyridin-2-yl]-(2,6-difluoro-4-methoxy-phenyl)-amine], the IC50 is less than 100 nM.

Regarding `CC(C)(c1cc2c(-c3nc(N4CCNCC4)c4c(C5CCC5)cncc4n3)ccnc2[nH]1)C(F)(F)F` [Example 2182, 5-Cyclobutyl-4-piperazin-1-yl-2-[2-(2,2,2-trifluoro-1,1-dimethyl-ethyl)-1H-pyrrolo[2,3-b]pyridin-4-yl]-pyrido[3,4-d]pyrimidine], the IC50 is less than 100 nM.
